# Measured values as given in patent US12070445B2, “System and assay for monitoring production/release of membrane-lytic toxins in bacteria and compounds for modulating same” (priority 2021, dated 2024).
# pIC50: −log10 of the molar value. Like-named read-outs stand apart in the source and are kept apart here.
# Tests used:
# [1] = test system: WT P. aeruginosa (PAO1-PGSC); assay: Microtiter plate (96-well) vesicle lysis assay with WT P. aeruginosa; format: cell-based
# Method: Compound handling and preparation. OdDHL and BHL (Hodgkinson et al., 2011), S. aureus AIP and peptide derivatives 1-5 (Tal-Gan et al., 2013, Tal-Gan et al., 2016, Vasquez and Blackwell, 2019), and compounds 7-9 (Welsh and Blackwell, 2016a, Boursier et al., 2018, Manson et al., 2020) were synthesized using previously described methods. PQS and compound 6 were purchased from Millipore Sigma and AK Scientific respectively. Compounds were stored dry at −20° C. until needed and then dissolved in DMSO. DMSO stock solutions were prepared at concentrations that varied with compound potency and apparent solubility. Final in-well compound concentrations for 96-well vesicle lysis assays, unless noted otherwise, were: 10 μM for AIP, OdDHL, and PQS; 1 mM for BHL; 100 nM for 1-4; 10 μM for 5; 20 μM for 6; 100 μM for 7 and 8; and 200 μM for 9.
# Production of phospholipid vesicles with encapsulated calcein. Large unilamellar vesicles (LUVs) were produced by adapting a freeze-thaw and vesicle extrusion procedure (Mayer et al., 1986). Briefly, stock solutions of phospholipids (DOPC, DPPC, DPPE, or cholesterol) in chloroform were mixed to the desired lipid compositions (70 mol % DOPC/30 mol % cholesterol for S. aureus vesicles or 68 mol % DPPC, 30 mol % cholesterol, 2 mol % DPPE for P. aeruginosa vesicles), and the chloroform was removed using an N2 stream or rotary evaporation followed by drying for at least one hour under vacuum. Self-quenching solutions of calcein were prepared by combining calcein and PBS or a specially prepared calcein buffer (1 mM EDTA, 10 mM Trisbase, and 100 mM NaCl; pH 8) to a calcein concentration of […]. The resulting solutions were titrated with 10 M aqueous NaOH until all calcein was dissolved and the solution reached pH 7.4 or pH 8 for PBS and the calcein buffer, respectively. The resulting calcein solutions were added to the dried phospholipid films (PBS for S. aureus formulations and the calcein buffer for the P. aeruginosa formulations) for a final lipid concentration of 5 mg/mL. The resulting lipid solutions were vortexed vigorously and briefly sonicated in a bath sonicator to form a turbid vesicle suspension. The vesicle suspensions were then freeze-thawed five times by alternately immersing them into an iPrOH/dry ice bath and a warm water bath (˜60° C.). Vesicles prepared for continuous time-course experiments were passed at least 5 times through a 100 nm polycarbonate filter using a Mini-prep extruder. Vesicles prepared for the high-throughput screen were passed through the filter 3 times. The resulting vesicles were then separated from external, unloaded calcein using a hand-packed Sephadex-G50 size exclusion chromatography column. The concentration of phospholipid in the solution was quantified using ^31P NMR (per the above protocol), and the phospholipid concentration was adjusted to 2 mM for unsaturated lipid solutions and 1 mM for saturated lipid solutions in their respective buffers. The resulting vesicles were characterized by dynamic light scattering and found to have a hydrodynamic diameter of ˜150 nm (FIGS. 3A-3C), which agrees with previous reports describing vesicle production using a similar method (Lapinski et al., 2007).
# Microtiter plate vesicle lysis assays. Portions of media (2 or 10 mL) were inoculated with individual bacterial colonies and allowed to shake overnight. […]
# P. aeruginosa = P. aeruginosa growth (OD600); format: cell-based; conditions: P. aeruginosa WT and QS mutant with vesicles, 12 hr
# Method: (§1) Microtiter plate vesicle lysis assays. Portions of media (2 or 10 mL) were inoculated with individual bacterial colonies and allowed to shake overnight. From these overnight cultures, subcultures were prepared by diluting the cultures 1:50 (v/v) in fresh BHI for S. aureus or 1:100 (v/v) in fresh LB for P. aeruginosa. An aliquot of each subculture (178 μL) was added to 20 μL of vesicle suspension and 2 μL of compound solution (dissolved in DMSO at 100× working concentration) in a clear-bottomed, black 96-well microtiter plate (Corning 3904). For controls, DMSO (vehicle) or Triton X-100 (1% final concentration) was substituted for compound. Plate covers were coated with an aqueous solution of 0.05% Triton X-100 and 20% ethanol (Brewster, 2003) to prevent the accumulation of condensation. Plates were incubated in a Biotek Synergy 2 microplate reader running Gen5 1.05 software at 37° C. with shaking at the high-speed setting. Fluorescence (excitation 500 nm, emission 540 nm) and OD600 (absorbance at 600 nm) measurements were recorded every 15 minutes for 12 hours. All experiments were performed in technical triplicate in a single microtiter plate. Biological triplicates were then obtained over three days. GraphPad Prism software (v. 9) was used to generate curves and calculate standard error.
# [2] = Solubility in DMSO and aqueous solutions
# human apelin receptor = biological target: T1, human apelin receptor (Homo sapiens, UniProt P35414); conditions: Smith, 2019; cited from earlier work
# T1 sequence (P35414 1-380): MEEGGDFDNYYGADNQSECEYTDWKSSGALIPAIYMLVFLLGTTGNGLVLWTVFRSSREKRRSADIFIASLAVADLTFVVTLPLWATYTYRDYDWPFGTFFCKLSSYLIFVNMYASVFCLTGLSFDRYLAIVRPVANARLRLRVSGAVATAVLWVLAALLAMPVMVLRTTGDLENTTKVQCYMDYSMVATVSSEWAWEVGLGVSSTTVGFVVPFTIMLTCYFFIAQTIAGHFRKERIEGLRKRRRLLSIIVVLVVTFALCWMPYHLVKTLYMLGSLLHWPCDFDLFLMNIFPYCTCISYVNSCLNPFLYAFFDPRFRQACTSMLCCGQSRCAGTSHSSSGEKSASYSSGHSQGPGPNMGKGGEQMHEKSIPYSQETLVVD
# S. aureus = S. aureus growth (OD600); format: cell-based; conditions: S. aureus, HTS hits
# Method: as §1
# High-throughput screening and follow-up analysis protocols. Test compounds and positive control 1 were delivered in 2.5 nL aliquots of DMSO with an Echo 550 liquid handler (LabCyte Inc.) into black 384-well microtiter plates (Corning). All test compounds were tested at 10 μM; positive control 1 was tested at 250 nM. DMSO was used as a negative control. Overnight cultures (2 mL) of WT S. aureus (RN6390b) were grown at 37° C. with shaking at 200 rpm. These cultures were diluted 1:500 (v/v) in fresh BHI medium, at which point vesicle solutions were added to a final concentration of 1 mM phospholipid (as determined by ^31P NMR analyses). This vesicle-cell mixture was then added to the 384-well microtiter plates with a Multidrop 384 liquid-dispensing robot (Thermo Scientific) for a total volume of 50 μL per well. Plates were incubated statically for ˜24 hr at 37° C., at which point fluorescence (excitation 483, emission 530) and OD600 (absorbance at 600 nm) measurements were made using a CLARIOstarR Plus microtiter plate reader (BMG Labtech) running MARS data analysis software. Scatter plots were generated using the Collaborative Drug Discovery Vault informatics platform. […] Fluorescence (excitation 510, emission 544) and OD600 measurements were acquired with a PerkinElmer EnVision microtiter plate reader running Envision Manager software. […]
# agr = agr YFP transcriptional reporter assay (S. aureus AH1677 with pDB59); format: cell-based; conditions: for agr inhibition in agr transcriptional reporter assay: S. aureus agr YFP reporter; for pIC50: Staphylococcus aureus
# Method: Bacterial strains and culture. All bacteria were grown at 37° C. with 200 rpm shaking unless otherwise specified. S. aureus and P. aeruginosa were grown in BHI medium and LB medium, respectively. S. aureus AH1677 (with an agr-YFP reporter plasmid) and P. aeruginosa PAO1-PGSC (with a plasI-LVAgfp reporter plasmid) were used as QS transcriptional reporters and grown with 10 μg/mL chloramphenicol and 300 μg/mL carbenicillin, respectively. All other strains were grown without supplemental antibiotic. S. aureus RN6390b and P. aeruginosa PAO1-PGSC were used as WT strains in vesicle lysis experiments, while S. aureus RN9222 and P. aeruginosa PAO-JG35 were used as QS mutants. RN9222 was grown without antibiotic as it was not used as a reporter strain (i.e., it served only as QS mutant).
# High-throughput screening and follow-up analysis protocols. Test compounds and positive control 1 were delivered in 2.5 nL aliquots of DMSO with an Echo 550 liquid handler (LabCyte Inc.) into black 384-well microtiter plates (Corning). All test compounds were tested at 10 μM; positive control 1 was tested at 250 nM. DMSO was used as a negative control. Overnight cultures (2 mL) of WT S. aureus (RN6390b) were grown at 37° C. with shaking at 200 rpm. These cultures were diluted 1:500 (v/v) in fresh BHI medium, at which point vesicle solutions were added to a final concentration of 1 mM phospholipid (as determined by ^31P NMR analyses). This vesicle-cell mixture was then added to the 384-well microtiter plates with a Multidrop 384 liquid-dispensing robot (Thermo Scientific) for a total volume of 50 μL per well. Plates were incubated statically for ˜24 hr at 37° C., at which point fluorescence (excitation 483, emission 530) and OD600 (absorbance at 600 nm) measurements were made using a CLARIOstarR Plus microtiter plate reader (BMG Labtech) running MARS data analysis software. Scatter plots were generated using the Collaborative Drug Discovery Vault informatics platform. The dose-response experiment using the vesicle lysis assay was performed in a 384-well plate in technical duplicate with compound concentrations of 0.1, 0.25, 0.5, 1, 2.5, 5, 10, and 20 μM. Dose-response curves were generated using variable slope (4 parameter) non-linear regression analysis for compound inhibition using GraphPad Prism software (v. 9). Analysis of the QS modulatory activity of the HTS hits and 6 (savirin) was performed using the S. aureus YFP transcriptional reporter strain. HTS hits were purchased directly from Life Chemicals, Inc. DMSO stock solutions (10 mM) of each compound were prepared and stored at −20° C. Serial dilutions (1:3) were prepared from the stock solutions in DMSO, and 2 μL aliquots of the resulting dilutions were added to the wells of black 96-well microtiter plates (Corning). Overnight cultures of the S. aureus reporter strain (2 mL) were grown at 37° C. with shaking at 200 rpm. Cultures were diluted 1:50 (v/v) into fresh BHI medium, and 198 μL of this diluted culture were added to each well containing compound, for a total volume of 200 μL per well. All plates contained a vehicle control consisting of 2 μL of DMSO and 198 μL of culture and a media control consisting of 200 μL BHI. Plates were incubated for ˜24 hours at 37° C. with shaking at 200 rpm. Fluorescence (excitation 510, emission 544) and OD600 measurements were acquired with a PerkinElmer EnVision microtiter plate reader running Envision Manager software. Background fluorescence from BHI control was subtracted from raw fluorescence reads, OD600 corrected, and finally normalized to vehicle control. Dose-response curves and IC50 values were generated using 3-parameter non-linear regression analysis for compound inhibition using GraphPad Prism software (v. 9). All compounds were tested in technical triplicate with at least 3 biological replicates.
# [3] = 24 h, read-out: IC50 in the agr reporter assay
SMILES,delay of vesicle lysis relative to vehicle controls ([1]; 100 μM 7 and 8),"delay of the onset of vesicle lysis ([1]; 100 μM 7 and 8, FIG. 7C)",effect on bacterial growth (P. aeruginosa),solubility in DMSO and aqueous solutions [2],reported activity at human apelin receptor (human apelin receptor),inhibition of cellular growth (S. aureus),agr inhibition in agr transcriptional reporter assay (agr),pIC50 (agr),pIC50 (agr; [3])
"CCCCCCCCCC(=O)CC(=O)Nc1ccccc1 [Compound 7, V-06-018]",approximately two,approximately 2 hr,inhibit growth mildly at later time points,–,–,–,–,–,–
"Cc1nn2c(C(C)C)cc(C(=O)O)nc2c1-c1ccccc1 [Compound 10, 7-isopropyl-2-methyl-3-phenylpyrazolo[1,5-a]pyrimidine-5-carboxylic acid]",–,–,–,readily soluble,agonists,do not inhibit cellular growth,near maximal agr inhibitors,5.91,6.30
"O=C(Nc1nc2c(s1)CN(C(=O)Nc1cccc(Cl)c1)CC2)c1ccsc1 [Compound 11, N-(3-chlorophenyl)-2-(thiophene-3-carboxamido)-6,7-dihydrothiazolo[5,4-c]pyridine-5(4H)-carboxamide]",–,–,–,readily soluble,–,do not inhibit cellular growth,near maximal agr inhibitors,–,6.15
